The values that follow come from US12416052B2, “Capturing, concentrating, and detecting microbes in a sample using magnetic ionic liquids and recombinase polymerase amplification” (priority 2019, dated 2025).

The data set relates to S. typhimurium ATCC 14028. The data set can be described thus: Exposure of cells and plating on non-selective (TSA) and selective (BSA) agar (viability, injury, toxicity). Conditions: exposure 0 to 15 min, 15 μL MIL. It counts as cell-based, Salmonella enterica. The method, then:
To examine whether exposure time to the Ni(II) MIL affected cell viability, MIL-based whole-cell extraction was performed using the Ni(II) MIL, and cell-enriched back-extraction media were enumerated at 0, 5, 10 and 15 min on both TSA and BSA. To evaluate toxicity of the [EMIM^+][SCN^−] IL, one milliliter of diluted S. typhimurium ATCC 14028 cell suspension was added to a 4-mL screw cap glass vial. A 5% (vol/vol) or 50% (vol/vol) aqueous solution of 1-ethyl-3-methylimidazolium thiocyanate (“[EMIM^+][SCN^−]”) (IoLiTec, Tuscaloosa, AL, USA) was added and mixed by vortexing for 30 s. Aliquots were enumerated at 0, 5, 10 and 15 min using TSA and BSA.
One milliliter of diluted S. typhimurium ATCC 14028 cell suspension was added to a 4-mL screw cap glass vial. Fifteen microliters of either the Dy(III) MIL or 2-10 μL of 100 mM DyCh solution or 10 mg of the ammonium tetra(hexafluoroaceto)dysprosium salt (15) ([NH4^+][Dy(hfacac)4^−]) (“Dy(III) ammonium salt”) was added and dispersed by vortex agitation for 30 s. Aliquots of the Dy(III) MIL- or Dy(III) ammonium salt-exposed cell suspension were enumerated using square TSA or BSA plates (BD).
Because culture-based methods depend on sample preparation steps that preserve bacterial viability, potential deleterious cytotoxic effects imparted by MIL extractants must be considered. To begin our further study of MIL-bacterial interactions, we selected S. typhimurium ATCC 14028 as a model gram-negative pathogen and the Ni(II) MIL as extractant. Briefly, a 1 mL aliquot of TSB was inoculated with 1×10^5 CFU mL^−1 of bacteria and spiked with 15 μL of the Ni(II) MIL, and the general schematic for MIL-based extraction and recovery followed as shown in FIG. 7B. After extraction, 10 μL aliquots of the back-extraction solution were enumerated at 0, 5, 10 and 15 min using TSA and BSA. Average CFU counts were compared to a standard that was not exposed to the Ni(II) MIL. […] To better understand the data in FIG. 8, statistical analyses of Ni(II) MIL capture precision and CFU count variation as a function of MIL exposure time were performed. Variation in MIL capture may stem from inherent randomness of MIL dispersion and coalescence behaviors.
The effects of 5% or 50% (vol/vol) aqueous solutions of the [EMIM^+][SCN^−] IL on the viability of the cells were also evaluated. Average CFU counts were compared to a standard not exposed to [EMIM^+][SCN^−]. In our hands, when S. typhimurium was exposed to 50% (vol/vol) solutions of [EMIM^+][SCN^−], no recovery was observed on either TSA or BSA after 5 min of exposure.
To gain further insight into this phenomenon, the effect of free elemental dysprosium was evaluated by subjecting the cells to 0.1 mM and 1.0 mM solutions of DyCl3. The cells were exposed to the metal salt solutions for 30 s and subsequently plated on selective and non-selective media.
While the metal did show cytotoxicity, it cannot be completely responsible for the Dy(III) MIL's effect on the cells, as no flocculation was seen and growth was still observed. Since both the Ni(II) and the Dy(III) MILs contain identical cations ([P6,6,6,14^+]), the role of the anion structure was evaluated. The anion of the Dy(III) MIL contains one additional hexafluoroacetylacetonate ligand than the Ni(II) MIL (FIG. 7), making the coordination geometry of the two complexes different. To test the effects of the anion structure, cells were subjected to 10 mg of the Dy(III) ammonium salt. After a 30 second vortex, similar flocculation was observed as when the cells were exposed to the native Dy(III) MIL.

“Also recorded” adds a separate entry of the source.

Regarding `CCCCCCCCCCCCCC[P+](CCCCCC)(CCCCCC)CCCCCC.O=C([CH-]C(=O)C(F)(F)F)C(F)(F)F.O=C([CH-]C(=O)C(F)(F)F)C(F)(F)F.O=C([CH-]C(=O)C(F)(F)F)C(F)(F)F.[Ni+2]` [Ni(II) MIL, [P66614^+][Ni(hfacac)3^−]], the “injury to S. typhimurium: average CFU counts on TSA and BSA” value is reported as “did not cause detectable injury; also recorded: appeared to be similar”.
